From the NIST ThermoML archive (doi:10.1016/j.jct.2017.02.022)

Columns and labels:
[1] = refractive index (Na D-line) (dimensionless); xn = mol fraction of the nth substance listed; conditions: 101.3 kPa, Liquid, Standard Abbe refractometry
[2] = xn = mol fraction of the nth substance listed; conditions: 101.3 kPa, Liquid; for speed of sound: Frequency=3 MHz, Sing-around technique in a fixed-path interferometer; for mass density: Vibrating tube method

COS(=O)(=O)[O-].Cn1cc[n+](C)c1 [1,3-dimethylimidazolium methylsulfate] + CCCCCO
Conditions | mass density, [2] [kg/m3] | refractive index, [1] | speed of sound, [2] [m/s]
298 K, x1 = 0.1 | 884 | 1.417 | 1311
298 K, x1 = 0.35 | 1041 | 1.439 | 1448
298 K, x1 = 0.54 | 1140 | 1.454 | 1552
298 K, x1 = 0.661 | 1195 | 1.463 | 1618
298 K, x1 = 0.79 | 1250 | 1.471 | 1672
298 K, x1 = 0.931 | 1304 | 1.479 | 1751
298 K, x1 = 1 | 1329 | 1.483 | 1811
303 K, x1 = 0.1 | 879 | 1.416 | 1295
303 K, x1 = 0.35 | 1035 | 1.438 | 1432
303 K, x1 = 0.54 | 1134 | 1.452 | 1536
303 K, x1 = 0.661 | 1189 | 1.461 | 1603
303 K, x1 = 0.79 | 1243 | 1.469 | 1659
303 K, x1 = 0.931 | 1298 | 1.477 | 1738
303 K, x1 = 1 | 1322 | 1.481 | 1799
308 K, x1 = 0.1 | 875 | 1.414 | 1278
308 K, x1 = 0.35 | 1031 | 1.436 | 1417
308 K, x1 = 0.54 | 1129 | 1.451 | 1521
308 K, x1 = 0.661 | 1185 | 1.459 | 1588
308 K, x1 = 0.79 | 1239 | 1.467 | 1645
308 K, x1 = 0.931 | 1294 | 1.476 | 1725
308 K, x1 = 1 | 1319 | 1.48 | 1787
313 K, x1 = 0.1 | 871 | 1.412 | 1261
313 K, x1 = 0.35 | 1026 | 1.433 | 1401
313 K, x1 = 0.54 | 1125 | 1.448 | 1506
313 K, x1 = 0.661 | 1181 | 1.456 | 1574
313 K, x1 = 0.79 | 1235 | 1.465 | 1631
313 K, x1 = 0.931 | 1290 | 1.474 | 1713
313 K, x1 = 1 | 1315 | 1.479 | 1775

COS(=O)(=O)[O-].Cn1cc[n+](C)c1 [1,3-dimethylimidazolium methylsulfate] + CCCCO
Conditions | mass density, [2] [kg/m3] | refractive index, [1] | speed of sound, [2] [m/s]
298 K, x1 = 0.063 | 861 | 1.405 | 1263
298 K, x1 = 0.221 | 982 | 1.421 | 1357
298 K, x1 = 0.432 | 1108 | 1.443 | 1500
298 K, x1 = 0.64 | 1205 | 1.46 | 1617
298 K, x1 = 0.781 | 1258 | 1.47 | 1688
298 K, x1 = 0.927 | 1307 | 1.479 | 1761
298 K, x1 = 1 | 1329 | 1.483 | 1811
303 K, x1 = 0.063 | 857 | 1.401 | 1246
303 K, x1 = 0.221 | 977 | 1.418 | 1341
303 K, x1 = 0.432 | 1102 | 1.439 | 1485
303 K, x1 = 0.64 | 1198 | 1.457 | 1602
303 K, x1 = 0.781 | 1252 | 1.468 | 1675
303 K, x1 = 0.927 | 1300 | 1.477 | 1748
303 K, x1 = 1 | 1322 | 1.481 | 1799
308 K, x1 = 0.063 | 852 | 1.398 | 1229
308 K, x1 = 0.221 | 972 | 1.414 | 1325
308 K, x1 = 0.432 | 1097 | 1.435 | 1469
308 K, x1 = 0.64 | 1193 | 1.454 | 1587
308 K, x1 = 0.781 | 1248 | 1.465 | 1661
308 K, x1 = 0.927 | 1297 | 1.475 | 1735
308 K, x1 = 1 | 1319 | 1.48 | 1787
313 K, x1 = 0.063 | 848 | 1.395 | 1213
313 K, x1 = 0.221 | 967 | 1.41 | 1309
313 K, x1 = 0.432 | 1092 | 1.431 | 1454
313 K, x1 = 0.64 | 1189 | 1.45 | 1572
313 K, x1 = 0.781 | 1243 | 1.461 | 1647
313 K, x1 = 0.927 | 1293 | 1.472 | 1722
313 K, x1 = 1 | 1315 | 1.479 | 1775
